Converted amounts (≈) assume the structure as drawn. Values belong to the compound of their own block, whether it stands above or below them.
How the values were obtained:
[1] = system: Haemonchus contortus; assay: Method B: activity against Haemonchus contortus in vivo in Mongolian gerbil; design: species or system Mongolian gerbil (Meriones unguiculatus); settings: po, 72 h, oral gavage, read-out: reduction in nematode infection
Protocol: Method B: Screening Method to Test Activity of Compounds Against Haemonchus contortus In Vivo in Mongolian Gerbil (Meriones unguiculatus).
Mongolian gerbils, at least five weeks old, were immunosuppressed and artificially infected with ca. 1000 ensheathed Haemonchus contortus third instar larvae. Six days after infection, the Mongolian gerbils were treated by oral gavage with the test compounds, dissolved in a mixture of 2 parts DMSO and 1 part polyethylene glycol (PEG400), at doses of 100 mg/kg and dissolved in pure polyethylene glycol (PEG400) at doses of 10 and 1 mg/kg. Mongolian gerbils treated only with the placebo (2 parts DMSO and 1 part PEG400 or pure PEG400) served as controls. On day 9 (3 days after treatment) the jirds were euthanized and necropsied for recovery of parasites from the stomach. Efficacy was calculated as the average % reduction in the number of worms in each test group compared with the average number of worms from the control group. […] Compound numbers 1.001, 1.008, 1.012, 1.013 and 1.014 provided at least 95% reduction in nematode in Mongolian gerbils treated by oral gavage with test article at a dose of 100 mg/kg. Compound numbers 1.012, 1.033, 1.064, 2.008, 2.037, 2.038, 2.040, 2.041, 3.001 provided at least 95% reduction in nematode infection at a dose of 10 mg/kg. Compound numbers 1.094, 1.096, 2.048, 3.001, 3.007 and 3.009, provided at least 95% reduction in nematode infection at a dose of 1 mg/kg. Compound numbers 3.006, 3.017 and 3.019 provided at least 95% reduction in nematode infection at a dose of 0.5 mg/kg. Compound numbers 3.005, 3.011 and 3.012 provided at least 95% reduction in nematode infection at a dose of 0.3 mg/kg. The eutomer compound number 3.024 provided at least 95% reduction in nematode infection at a dose of 0.1 mg/kg.

[2] = system: Haemonchus contortus; assay: Method A: screening of activity against Haemonchus contortus L1 larvae in microtitre plate (development to L3 / motility); settings: Haemonchus contortus, 96 h, 4 days assessment; for inhibition at 0.04 ppm: test concentration 0.04 ppm; for inhibition at 0.01 ppm: test concentration 0.01 ppm; for inhibition at 0.6 ppm: test concentration 0.6 ppm
Source text: Method A: Screening Method to Test Activity of Compounds Against Haemonchus contortus.

[3] = Feed solubility in ethanol (preparative chiral separation); assay type: physicochemical; settings: organic solvent or mixture, with stirring and heating
Protocol: The feed solution was filtered through a 0.2 μm filter before use. The enantiomers were separated using a CHIRALPAK®AD® column (CHIRAL Technologies Inc., 20 μm particle size of amylose tris(3,5-dimethylphenylcarbamate) polysaccharide CHIRALPAK®AD® stationary phase, 5 cm internal diameter, 50 cm length at 25° C. and flow rate of 110 mL/min) with injection volume of 65 mL every 11 min. The fractions collected from the chromatographic process for each of the two chromatographic eluting peaks were concentrated using a a 20 L rotary evaporator at 40° C. and 50 mbar. After solvent removal, the products were dried to constant weight in a vacuum oven at 40° C. The target eutomer (+)-N-[2-(6-Bromo-2H-pyrazolo[4,3-b]pyridin-2-yl)-1-cyano-1-methylethyl]-4-trifluoromethoxybenzamide was isolated from the first eluting peak with a recovery yield of 89.0% (19.3 g). […] The distomer (−)-N-[2-(6-Bromo-2H-pyrazolo[4,3-b]pyridin-2-yl)-1-cyano-1-methylethyl]-4-trifluoromethoxybenzamide was isolated from the second eluting peak with a recovery yield of 94.5% (20.5 g). The percent enantiomeric excess of the distomer is 98.8% as measured via analytical chiral HPLC using a CHIRALPAK®AD® column (CHIRAL Technologies Inc., 4.6×250 mm, at 30° C., flow rate of 0.7 mL/min of EtOH mobile phase, retention time=12.5 min).

[4] = system: ivermectin-resistant Haemonchus contortus; assay: Method I: sheep in vivo, ivermectin-resistant Haemonchus contortus; settings: ivermectin orally at 0.2 mg/kg
Source text: (§1) Method I: Screening Method to Test Activity of Compounds Against Ivermectin-Resistant Haemonchus contortus, Ostertagia circumcincta, and Trichostrongylus colubriformis In Vivo in Sheep.
(§2) Sheep were challenged orally with infective 3rd stage larvae (L3) of Ostertagia circumcincta (˜3,000-6,000 infective L3 per animal) on Dat −28, Haemonchus contortus (˜2,000-4,000 infective L3 per animal) on Dat −25, and Trichostrongylus colubriformis (˜3,000-6,000 infective L3 per species per animal) on Dat −23. The inoculation schedule was designed so that nematodes were expected to be in the adult stage on Day 0. Test compounds were dissolved in a mixture of DMSO/Corn oil (1:1) at a concentration of 10 mg/mL. All treatments were administered orally once on Day 0. At sacrifice on Day 14 the abomasum, small intestine and large intestine (including cecum) were removed. Nematode counts were conducted on 10% (abomasal and small intestinal content, abomasal soak) or 20% aliquots (large intestinal content). All nematodes were speciated, or assigned to species based on location of recovery (adult females, fourth-stage larvae) for a total count per species. Efficacy was calculated as the % reduction in the mean number of worms in each test group compared with the mean number of worms recovered from the control group. […]

[5] = system: Nematodirus helvetianus; assay: Method H: cattle in vivo, Nematodirus helvetianus; settings: ivermectin alone, 0.2 mg/kg (200 μg/kg) subcutaneously
Source text: (§3) Method H: Screening Method to Test Activity of Compounds Against Haemonchus placei, Ostertagia ostertagi, Trichostrongylus axei, Cooperia punctata, Bunostomum phlebotomum, Oesophagostomum radiatum, Dictyocaulus viviparus, and Nematodirus helvetianus In Vivo in Cattle.
(§4) Calves were challenged intra-aurally with larvae from Bunostomum phlebotomum (500-1000 L3 per animal) on Dat −56; and orally with larvae from Oesophagostomum radiatum (1,000-2,000 infective L3 per animal) on Dat −49, Nematodirus helvetianus (3,000-6,000 infective L3 per animal) on Dat −28, Haemonchus placei (5,000-7,000 infective L3 per animal) on Dat −28, Dictyocaulus viviparus (1,000-2,000 infective L3 per animal) on Dat −28, Ostertagia ostertagi (10,000-20,000 infective L3 per animal) on Dat −21, Trichostrongylus axei (10,000-20,000 infective L3 per animal) on Dat −21, Cooperia punctata (10,000-20,000 infective L3 per animal) on Dat −28, and Cooperia oncophora (10,000-20,000 infective L3 per animal) on Dat −21. The test compound was administered alone at a dose of 3 or 6 mg/kg orally or subcutaneously or subcutaneously at a dose of 6 mg/kg in combination with ivermectin at a dose of 50 mcg/kg. For oral administration, test compounds were formulated at a concentration of 10 mg/mL in DMSO/Corn oil (1:1). For subcutaneous administration, test compounds were formulated in propylene glycol/glycerol formal (60:40). All treatments were administered at Day 0. At necropsy on Day 14/15, the abomasa, small intestine and large intestine were removed and processed for parasite recovery. Nematode counts were conducted on appropriate aliquots. Efficacy was calculated for each nematode species by calculating the percent efficacy as 100[(C−T)/C], where C is the mean count among untreated controls and T is the count of the treated animals. Compound number 3.024 provided >95% efficacy against Haemonchus placei, Ostertagia ostertagi, Trichostrongylus axei, Cooperia punctata, Oesophagostomum radiatum and Nematodirus helvetianus at a dose as low as 3 mg/kg administered orally. […]

[6] = system: Haemonchus placei; assay: Method H: cattle in vivo, Haemonchus placei; settings: ivermectin alone, 0.2 mg/kg (200 μg/kg) subcutaneously
Source text: as §3, §4

[7] = system: ivermectin-resistant Ostertagia circumcincta; assay: Method I: sheep in vivo, ivermectin-resistant Ostertagia circumcincta; settings: ivermectin orally at 0.2 mg/kg
Source text: as §1, §2

[8] = system: ivermectin-resistant Trichostrongylus columbriformis; assay: Method I: sheep in vivo, ivermectin-resistant Trichostrongylus colubriformis; settings: ivermectin orally at 0.2 mg/kg
Source text: as §1, §2

Compound: CC(C#N)(Cn1nc2c(Cl)cc(Cl)c(Cl)c2n1)NC(=O)c1ccc(OC(F)(F)F)cc1 (single isomer, unassigned; (+)) [Compound 1.096, (+)-N-[1-Cyano-1-methyl-2-(4,5,7-trichloro-2H-benzotriazol-2-yl)-ethyl]-4-trifluoromethoxybenzamide]
inhibition in vivo at 1 mg/kg ([1]; dose 1 mg/kg, necropsy 3 days after treatment): ≥ 95%
inhibition at 0.0025 ppm ([2]; test concentration 0.0025 ppm): ≥ 90%

Compound: CC(C#N)(Cn1cc2ncc(Cl)cc2n1)NC(=O)c1ccc(OC(F)(F)F)cc1 (stereo not drawn) [Compound 3.005, N-[2-(6-Chloro-2H-pyrazolo[4,3-b]pyridin-2-yl)-1-cyano-1-methylethyl]-4-trifluoromethoxybenzamide]
inhibition in vivo at 0.3 mg/kg [1]: ≥ 95%

solubility [3]: 8.6 mg/mL (≈ 18.4 mM)
Compound: CC(C#N)(Cn1cc2ncc(Br)cc2n1)NC(=O)c1ccc(OC(F)(F)F)cc1 (stereo not drawn) [Compound 3.011, N-[2-(6-Bromo-2H-pyrazolo[4,3-b]pyridin-2-yl)-1-cyano-1-methylethyl]-4-trifluoromethoxybenzamide]
inhibition in vivo at 0.3 mg/kg [1]: ≥ 95%

Compound: C[C@](C#N)(Cn1cc2ncc(Br)cc2n1)NC(=O)c1ccc(OC(F)(F)F)cc1 [Compound 3.025, (−)-N-[2-(6-Bromo-2H-pyrazolo[4,3-b]pyridin-2-yl)-1-cyano-1-methylethyl]-4-trifluoromethoxybenzamide]
inhibition in vivo at 0.3 mg/kg [1]: < 95%
inhibition at 0.3 ppm ([2]; test concentration 0.3 ppm): < 90%

Compound: CC(C#N)(Cn1cc2ncc(Br)cc2n1)NC(=O)c1ccc(C(F)(F)F)cc1 (stereo not drawn) [Compound 3.047, N-[2-(6-Bromo-2H-pyrazolo[4,3-b]pyridin-2-yl)-1-cyano-1-methylethyl]-4-trifluoromethylbenzamide]
inhibition at 0.04 ppm [2]: ≥ 90%

Compound: CC(C#N)(Cn1cc2ncc(Br)cc2n1)NC(=O)c1ccc(Oc2ccccc2)cc1 (stereo not drawn) [Compound 3.048, N-[2-(6-Bromo-2H-pyrazolo[4,3-b]pyridin-2-yl)-1-cyano-1-methylethyl]-4-phenoxybenzamide]
inhibition at 0.01 ppm [2]: ≥ 90%

Compound: CC(C#N)(Cn1cc2ncc(Br)cc2n1)NC(=O)c1ccc(I)cc1 (stereo not drawn) [Compound 3.049, N-[2-(6-Bromo-2H-pyrazolo[4,3-b]pyridin-2-yl)-1-cyano-1-methylethyl]-4-iodobenzamide]
inhibition at 0.04 ppm [2]: ≥ 90%

Compound: CC(C#N)(Cn1cc2ncc(Br)cc2n1)NC(=O)c1ccc(-c2ccccc2)cc1 (stereo not drawn) [Compound 3.050, N-[2-(6-Bromo-2H-pyrazolo[4,3-b]pyridin-2-yl)-1-cyano-1-methylethyl]-biphenyl-4-carboxamide]
inhibition at 0.15 ppm ([2]; test concentration 0.15 ppm): ≥ 90%

Compound: CCCCCCc1ccc(C(=O)NC(C)(C#N)Cn2cc3ncc(Br)cc3n2)cc1 (stereo not drawn) [Compound 3.051, N-[2-(6-Bromo-2H-pyrazolo[4,3-b]pyridin-2-yl)-1-cyano-1-methylethyl]-4-hexylbenzamide]
inhibition at 0.6 ppm [2]: ≥ 90%

Compound: COc1nc2cn(CC(C)(C#N)NC(=O)c3ccc(OC(F)(F)F)cc3)nc2cc1Br (stereo not drawn) [Compound 3.052, N-[2-(6-Bromo-5-methoxy-2H-pyrazolo[4,3-b]pyridin-2-yl)-1-cyano-1-methylethyl]-4-trifluoromethoxybenzamide]
inhibition at 0.01 ppm [2]: ≥ 90%

Compound: CC(C#N)(Cn1cc2ncc(Br)cc2n1)NC(=O)c1ccc(OC(F)(F)F)cc1F (stereo not drawn) [Compound 3.056, N-[2-(6-Bromo-2H-pyrazolo[4,3-b]pyridin-2-yl)-1-cyano-1-methylethyl]-2-fluoro-4-trifluoromethoxybenzamide]
inhibition at 0.04 ppm [2]: ≥ 90%

Compound: CC(C#N)(Cn1cc2ccnc(Br)c2n1)NC(=O)c1ccc(OC(F)(F)F)cc1 (stereo not drawn) [Compound 4.005, N-[2-(7-Bromo-2H-pyrazolo[3,4-c]pyridin-2-yl)-1-cyano-1-methylethyl]-4-trifluoromethoxybenzamide]
inhibition at 0.6 ppm [2]: ≥ 90%

Compound: CC(C#N)(Cn1cc2cc(Br)cnc2n1)NC(=O)c1ccc(OC(F)(F)F)cc1 (stereo not drawn) [Compound 5.001, N-[2-(5-Bromo-2H-pyrazolo[3,4-b]pyridin-2-yl)-1-cyano-1-methylethyl]-4-trifluoromethoxybenzamide]
inhibition at 0.6 ppm [2]: ≥ 90%

Compound: ivermectin [reference compound]
activity against ivermectin-resistant Haemonchus contortus [4]: almost completely inactive
efficacy against Nematodirus helvetianus [5]: less than 30%
efficacy against Haemonchus placei (ivermectin-resistant strain) [6]: less than 70%
efficacy against ivermectin-resistant Ostertagia circumcincta [7]: less than 30%
efficacy against ivermectin-resistant Trichostrongylus columbriformis [8]: less than 60%

Source: US8461176B2, “Enantiomerically enriched aryloazol-2-yl cyanoethylamino compounds, method of making and method of using thereof” (Merial Limited, priority 2008, dated 2013)
